Source: US11053226B2, “KRAS G12C inhibitors and methods of using the same” (Amgen Inc., priority 2018, dated 2021)
Like-named read-outs stand apart in the source and are kept apart here.

Tests used:
[1] = molecular target: GDP-bound KRAS protein (aa 1-169), containing both G12C and C118A amino acid substitutions (Homo sapiens (Human), UniProt P01116, C118A/G12C); assay: Coupled Nucleotide Exchange Assay; type: biochemical
Description: (§1) For compounds in Table 9, the following assay conditions were employed:
Coupled Nucleotide Exchange Assay:
The assay plates were then read on a PerkinElmer EnVision Multilabel Reader, using AlphaScreen® technology, and data were analyzed using a 4-parameter logistic model to calculate IC50 values.

[2] = system: Phosphorylation of ERK1/2 in MIA PaCa-2 cells; assay: Phospho-ERK1/2 MSD Assay; type: cell-based; settings: MiaPaCa-2 cells
Description: as §1
Phospho-ERK1/2 MSD Assay:
Sixteen hours prior to compound treatment, MIA PaCa-2 cells were seeded in 96-well cell culture plates at a density of 25,000 cells/well and incubated at 37° C., 5% CO2. […] Following compound treatment, cells were stimulated with 10 ng/mL EGF (Roche 11376454001) for 10 min, washed with ice-cold Dulbecco's phosphate-buffered saline, no Ca^2+ or Mg^2+ (ThermoFisher Scientific 14190144), and then lysed in RIPA buffer (50 mM Tris-HCl pH 7.5, 1% Igepal, 0.5% sodium deoxycholate, 150 mM NaCl, and 0.5% sodium dodecyl sulfate) containing protease inhibitors (Roche 4693132001) and phosphatase inhibitors (Roche 4906837001). […] Assay plates were read on a Meso Scale Discovery Sector Imager 6000, and data were analyzed using a 4-parameter logistic model to calculate IC50 values.

[3] = system: Phosphorylation of ERK1/2 in A549 cells; assay: Phospho-ERK1/2 MSD Assay (A549); type: cell-based; settings: Homo sapiens
[4] = read-out: Coupled Exchange IC50 (2 h), 2 h compound pre-incubation
[5] = Homo sapiens, MIA PaCa-2, 4 h, read-out: pERK IC50 (4 h, MiaPaCa-2), 4 h compound treatment
[6] = A549, 4 h, read-out: pERK IC50 (4 h, A549), 4 h compound treatment
[7] = read-out: Coupled Exchange IC50 (20 h), 20 h compound pre-incubation
[8] = read-out: Coupled Exchange IC50 (5 min), 5 min compound pre-incubation
[9] = Homo sapiens, MIA PaCa-2, read-out: pERK IC50 (4 h), 4 h compound treatment
[10] = read-out: pERK IC50 (4 h), 4 h compound treatment

GDP-bound KRAS protein (aa 1-169), containing both G12C and C118A amino acid substitutions, sequence (P01116 other isoform, or with tags, fused parts or gaps G12C/C118A): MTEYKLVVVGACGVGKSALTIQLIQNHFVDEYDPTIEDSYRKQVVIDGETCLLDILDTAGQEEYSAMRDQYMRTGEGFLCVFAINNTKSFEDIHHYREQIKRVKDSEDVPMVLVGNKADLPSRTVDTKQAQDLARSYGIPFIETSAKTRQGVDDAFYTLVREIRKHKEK

SMILES	IC50 [1, 4]	IC50 [2, 5]	IC50 [3, 6]	IC50 [1, 7]	IC50 [1, 8]	IC50 [2, 9]	IC50 [3, 10]	IC50 ([2]; read-out: pERK IC50 (4 h, MiaPaCa-2), 4 h compound treatment)
C=CC(=O)N1CC(NC(=O)Cn2c(CC)c(C(=O)N3CCc4c(cccc4OC)C3)c3cc(Cl)cc(C)c32)C1 [Example 1-2, 2-(5-Chloro-2-ethyl-3-((5-methoxy-3,4-dihydro-2(1H)-isoquinolinyl)carbonyl)-7-methyl-1H-indol-1-yl)-N-(1-(2-propenoyl)-3-azetidinyl)acetamide]	0.06 µM	0.13 µM	> 100 µM					
C=CC(=O)N1CC(NC(=O)Cn2c(C)c(C(=O)N3CCc4c(C)cc(Br)cc4C3)c3cc(Br)ccc32)C1 [Example 51]	0.75 µM	4.82 µM	> 100 µM	0.18 µM				
C=CC(=O)N1CC(NC(=O)Cn2c(C)c(-c3ccccc3-c3ccccc3)c3cc(Cl)ccc32)C1 [Example 67]	0.83 µM			0.24 µM	3.9 µM	8.8 µM	> 100 µM	
C=CC(=O)N1CC(NC(=O)Cn2cc(-c3ccc(F)cc3F)c3cc(Br)ccc32)C1 [Example 137]	6.9 µM			1.13 µM		40.4 µM	16.5 µM	
C=CC(=O)N1CC(NC(=O)Cn2c(C)c(C(=O)N3CCc4c(cccc4OC)C3)c3cc(C)cc(C)c32)C1 [Example 6]	0.34 µM	1.12 µM	> 100 µM					
C=CC(=O)N1CC(NC(=O)Cn2cc(-c3ccccc3OC)c3cc(Br)ccc32)C1 [Example 151]	4.33 µM			0.92 µM		51.2 µM	14.6 µM	
C=CC(=O)N1CC(NC(=O)Cn2c(C)c(-c3cncnc3C3CC3)c3cc(Cl)ccc32)C1 [Example 30]	2.32 µM					2.68 µM	> 100 µM	
C=CC(=O)N1CC(NC(=O)Cn2cc(I)c3ccc(-c4ccccc4Cl)cc32)C1 [Example 150]	2.92 µM			0.59 µM		50.8 µM	> 100 µM	
C=CC(=O)N1CC(NC(=O)Cn2cc(I)c3cc(Br)ccc32)C1 [Example 85]	3.84 µM			0.49 µM	23.6 µM	14 µM	> 100 µM	
C=CC(=O)N1CC(N(C)C(=O)Cn2c(C)c(C(=O)N3CCN(c4ccc(C(F)(F)F)cn4)CC3)c3cc(Br)ccc32)C1 [Example 10]	0.82 µM	1.58 µM	43.4 µM					
C=CC(=O)N1CC(NC(=O)Cn2cc(C(=O)NCCc3ccc(Cl)cc3Cl)c3cc(Cl)cc(Cl)c32)C1 [Example 178]	0.63 µM	> 100 µM	> 100 µM	0.22 µM				
C=CC(=O)N1CC(NC(=O)Cn2c(C)c(C(=O)N3CCc4ccccc4[C@H]3C)c3cc(Br)cc(C)c32)C1 (stereo in doubt) [Example 2-2, 2-(5-Bromo-2,7-dimethyl-3-(((1R)-1-methyl-3,4-dihydro-2(1H)-isoquinolinyl)carbonyl)-1H-indol-1-yl)-N-(1-(2-propenoyl)-3-azetidinyl)acetamide|2-(5-bromo-2,7-dimethyl-3-(((1S)-1-methyl-3,4-dihydro-2(1H)-isoquinolinyl)carbonyl)-1H-indol-1-yl)-N-(1-(2-propenoyl)-3-azetidinyl)acetamide]	0.25 µM		40.9 µM					2.28 µM
C=CC(=O)N1CC(NC(=O)Cn2c3ccc(Br)cc3c3c(Cl)ccnc32)C1 [Example 75]	3.73 µM			0.43 µM		11.3 µM	> 100 µM	
C=CC(=O)N1CC(NC(=O)Cn2cc(C(=O)N(C)CC(=O)Nc3ccc(Cl)c(C(F)(F)F)c3)c3cc(Br)ccc32)C1 [Example 158]	0.44 µM	53.9 µM	> 100 µM	0.16 µM				
C=CC(=O)N1CC(N(C)C(=O)Cn2c(C)c(C(=O)N3CCN(c4ccc(C#N)cn4)C[C@H]3C)c3cc(Br)ccc32)C1 [Example 8]	0.22 µM	1.56 µM	> 100 µM					
C=CC(=O)N1CC(NC(=O)Cn2c(C)c(C(=O)N3Cc4ccccc4CC3C)c3cc(Br)cc(C)c32)C1 (centres unmarked) [Example 39]	0.33 µM	3.35 µM	60.3 µM					
C=CC(=O)N1CC(NC(=O)Cn2cc(I)c3cc(Br)c(C)cc32)C1 [Example 95]	5.79 µM			1.09 µM		16.7 µM	> 100 µM	
C=CC(=O)N1CC(NC(=O)Cn2c(C)c(-c3ccccc3C(C)C)c3cc(Cl)ccc32)C1 [Example 5-3, 2-(5-Chloro-2-methyl-3-(2-(2-propanyl)phenyl)-1H-indol-1-yl)-N-(1-(2-propenoyl)-3-azetidinyl)acetamide]	0.63 µM			0.22 µM	4.11 µM	2.06 µM	> 33.3 µM	

SMILES	IC50 [1, 4]	IC50 [2, 5]	IC50 [3, 6]	IC50 [1, 7]	IC50 [1, 8]	IC50 [2, 9]	IC50 [3, 10]	IC50 ([2]; read-out: pERK IC50 (4 h, MiaPaCa-2), 4 h compound treatment)
C=CC(=O)N1CC(NC(=O)Cn2c3c(c4cc(Br)ccc42)CCCCC3)C1 [Example 102]	4.9 µM			0.9 µM		21.2 µM	> 100 µM	
C=CC(=O)N1CC(NC(=O)Cn2c(C)c(-c3ccccc3C)c3cc(Cl)ccc32)C1 [Example 121]	1.57 µM			0.42 µM	12.4 µM	31.2 µM	> 100 µM	
C=CC(=O)N1CC(NC(=O)Cn2c(C)c(C(=O)N3CCc4c(ccnc4OC)C3)c3cc(Br)ccc32)C1 [Example 12]	0.51 µM	1.65 µM	> 100 µM	0.17 µM				
C=CC(=O)N1CC(NC(=O)Cn2cc(C(=O)NCCc3ccc(Cl)cc3Cl)c3cc(Br)cc(C)c32)C1 [Example 162]	0.76 µM	81.5 µM	> 100 µM	0.26 µM				
C=CC(=O)N1CC(N(C)C(=O)Cn2cc(I)c3cc(Br)ccc32)C1 [Example 43]	4.65 µM			0.44 µM	36.6 µM	3.82 µM	> 33.3 µM	
C=CC(=O)N1CC(NC(=O)Cn2cc(C(=O)N3CCc4c(Br)cc(C)cc4C3)c3cc(Br)cc(C)c32)C1 [Example 80]	0.33 µM	12.2 µM	25.7 µM	0.15 µM				
C=CC(=O)N1CC(N(C)C(=O)Cn2c(CC)c(C(=O)N3CCc4c(ccnc4OC)C3)c3cc(Cl)cc(C)c32)C1 [Example 4-1, 2-(5-Chloro-2-ethyl-3-((5-methoxy-3,4-dihydro-2,6-naphthyridin-2(1H)-yl)carbonyl)-7-methyl-1H-indol-1-yl)-N-methyl-N-(1-(2-propenoyl)-3-azetidinyl)acetamide]	0.12 µM	0.13 µM	> 100 µM					
C=CC(=O)N1CC(N2CCC(n3cc(I)c4cc(Cl)ccc43)C2=O)C1 (centres unmarked) [Example 90]	4.3 µM			0.48 µM	61.1 µM	16 µM	> 100 µM	
C=CC(=O)N1CC(NC(=O)Cn2cc(C(=O)NCC(CC)Oc3cccc(Cl)c3)c3cc(Br)ccc32)C1 (centres unmarked) [Example 152]	1.8 µM	51.6 µM	68.8 µM	0.47 µM				
C=CC(=O)N1CC(NC(=O)Cn2c(C)c(C(=O)N3CCc4ccccc4C3(C)C)c3cc(Br)cc(C)c32)C1 [Example 35]	0.29 µM	3.06 µM	55.7 µM					
C=CC(=O)N1CC(NC(=O)Cn2c(C)c(-c3cccc4nc(C)ccc34)c3cc(Cl)ccc32)C1 [Example 101]	1.11 µM					20.3 µM	56.8 µM	
C=CC(=O)N1CC(N(C)C(=O)Cn2c(C3CC3)c(C(=O)N3CCN(c4ccc(C#N)cn4)CC3)c3cc(Cl)cc(C)c32)C1 [Example 19]	0.61 µM	1.87 µM	> 100 µM					
C=CC(=O)N1CC(NC(=O)Cn2c(C3CC3)c(C(=O)N3CCc4c(cccc4OC)C3)c3cc(Br)ccc32)C1 [Example 3-2, 2-(5-Bromo-2-cyclopropyl-3-((5-methoxy-3,4-dihydro-2(1H)-isoquinolinyl)carbonyl)-1H-indol-1-yl)-N-(1-(2-propenoyl)-3-azetidinyl)acetamide]	0.14 µM	0.6 µM	52.6 µM					
C=CC(=O)N1CC(NC(=O)Cn2cc(C3CC3)c3ccc(-c4ccccc4Cl)cc32)C1 [Example 146]	3.8 µM			0.74 µM		47.1 µM	74.2 µM	
C=CC(=O)N1CC(NC(=O)Cn2c(C)c(C(=O)N3[C@H](C)Cc4c(OC)cccc4[C@H]3C)c3cc(Br)cc(C)c32)C1 (stereo in doubt) [Example 2-3]	0.16 µM	0.67 µM	51.7 µM					
C=CC(=O)N1CC(NC(=O)Cn2cc(Cl)c3cc(Br)ccc32)C1 [Example 154]	5.12 µM			0.86 µM	56.2 µM	52.1 µM	> 100 µM	
C=CC(=O)N1CC(NC(=O)Cn2cc(C(=O)N3CCc4c(Br)cc(C)cc4C3)c3cc(Cl)cc(Cl)c32)C1 [Example 92]	0.39 µM	16.5 µM	> 100 µM	0.18 µM				
